Data on 26 compounds can be found in patent US5624917A, “Method of inhibiting squalene synthetase” (Takeda Chemical Industries, Ltd., priority 1991, dated 1997).

For assay [1], the target named is T1, squalene synthetase (Rattus norvegicus, UniProt Q02769).
T1 construct: from tissue; host or cells: liver of male SD rats (microsome fraction)
T1 sequence (Q02769 1-416): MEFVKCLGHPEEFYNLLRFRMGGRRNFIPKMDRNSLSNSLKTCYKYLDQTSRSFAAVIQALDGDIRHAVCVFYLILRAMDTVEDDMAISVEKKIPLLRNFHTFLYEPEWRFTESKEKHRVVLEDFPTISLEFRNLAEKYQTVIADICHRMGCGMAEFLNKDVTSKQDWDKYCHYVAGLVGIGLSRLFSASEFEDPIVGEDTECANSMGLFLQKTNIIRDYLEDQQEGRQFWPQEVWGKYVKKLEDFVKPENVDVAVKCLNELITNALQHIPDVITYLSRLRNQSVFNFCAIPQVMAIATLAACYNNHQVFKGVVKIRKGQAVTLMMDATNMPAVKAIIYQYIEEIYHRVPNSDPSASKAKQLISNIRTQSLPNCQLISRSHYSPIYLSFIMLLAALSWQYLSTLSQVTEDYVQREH
The assay is described as follows: Squalene synthetase inhibitory activity, rat enzyme (rat liver microsome fraction). Format: biochemical. Conditions: 5 μM [1-3H]farnesylpyrophosphoric acid, pH 7.4, 37° C., 45 minutes, read-out: IC50, squalene synthetase inhibitory activity, Rat enzyme. The procedure: (§1) Squalene synthetase inhibitory activity and cholesterol biosynthesis inhibitory activity of the compounds used in the present invention were determined by the following method.
(§2) Determination of squalene synthetase inhibitory activity
(§3) The squalene synthetase inhibitory activity was determined as follows by using the enzyme solutions shown in Experiments 1 and 2 below.
(§4) Each enzyme solution (Protein: 0.8 μg) prepared in Experiments 1 and 2 was added to a solution (total amount: 50 μl) containing 5 μM[1-^3 H]farnesylpyrophosphoric acid (Specific activity 25 μCi/μmole), 1 mM NADPH, 5 mM MgCl2, 6 mM glutathione, 100 mM potassium phosphate buffer (pH 7.4) and a drug to be tested (which was added as a solution thereof in water or DMSO). The mixture was allowed to react at 37° C. for 45 minutes. A mixture (150 μl) of chloroform and methanol (1:2) was added to stop the reaction. Then, chloroform (50 μl) and 3N sodium hydroxide solution (50 μl) were added. The chloroform layer (under layer, 50 μl) containing the reaction products in which the major component was squalene was mixed with toluene liquid scintillator (3 ml). The radioactivity was measured with a liquid scintillation counter.
(§5) The squalene synthetase inhibitory activity is indicated by the concentration (IC50, molarity(M)) which inhibits the radioactivity incorporated into the chloroform layer by 50%.
Preparation of rat enzyme
SD-Male rats (6 weeks old) were bled to death followed by removal of liver. The liver (ca. 10 g) was washed with ice-cooled physiological saline, homogenized in an ice-cooled buffer solution (15 ml) [100 mM potassium phosphate (pH 7.4), 15 mM nicotinamide, 2 mM MgCl2 ] and centrifuged at 10,000×g for 20 minutes (4° C.). The resulting supernatant was further centrifuged at 105,000×g for 90 minutes (4° C.). Then, the deposit was suspended in an ice-cooled 100 mM potassium phosphate buffer solution (pH 7.4) and centrifuged at 105,000×g for 90 minutes (4° C.) again. The deposit (microsome fraction) thus obtained was suspended in an ice-cooled 100 mM potassium phosphate buffer solution (pH 7.4) so that the protein concentration became about 40 mg/ml (measured with BCA Protein Assay Kit (Pias)), and the suspension was used as the enzyme solution.
A general note: Liver microsomes are vesicles of endoplasmic reticulum, rich in cytochrome P450 enzymes.

Assay [2] deals with T2, squalene synthetase (Homo sapiens, UniProt P37268).
T2 construct: From the resulting sonicate, microsome fraction was obtained according to the same manner as that described in Experiment 1; endogenous in cells; host or cells: HepG2 human hepatoma cells (microsome fraction)
T2 sequence (P37268 1-417): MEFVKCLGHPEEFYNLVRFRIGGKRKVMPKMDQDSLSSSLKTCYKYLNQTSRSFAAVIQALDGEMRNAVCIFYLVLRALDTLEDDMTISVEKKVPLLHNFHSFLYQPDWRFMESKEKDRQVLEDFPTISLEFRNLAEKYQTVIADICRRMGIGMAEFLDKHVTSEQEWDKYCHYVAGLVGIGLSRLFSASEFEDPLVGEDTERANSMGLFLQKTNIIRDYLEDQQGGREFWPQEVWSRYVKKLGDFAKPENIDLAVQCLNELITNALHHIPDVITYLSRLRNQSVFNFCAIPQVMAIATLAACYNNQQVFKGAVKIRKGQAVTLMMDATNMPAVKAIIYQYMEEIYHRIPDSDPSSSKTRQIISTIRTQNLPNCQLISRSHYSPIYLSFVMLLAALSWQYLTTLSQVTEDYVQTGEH
The assay is described as follows: Squalene synthetase inhibitory activity, human enzyme (HepG2 microsome fraction). Format: biochemical. The settings on record: human hepatoma HepG2 microsome fraction; 5 μM [1-3H]farnesylpyrophosphoric acid, pH 7.4, 37° C., 45 minutes; read-out: IC50, squalene synthetase inhibitory activity, Human enzyme. Here is the method: as §1, §2, §3, §4, §5
Preparation of human enzyme
Cultivation was carried out on Dulbecco modified Eagle medium containing 10% bovine fetal serum in the presence of 5% CO2 at 37° C. The human hepatoma cells HepG2 (ca. 1×10^9 cells) were suspended in an ice-cooled buffer solution (10 ml) [100 mM potassium phosphate (pH 7.4), 30 mM nicotinamide, 2.5 mM MgCl2 ], and the cells were crushed by ultrasonication (30 seconds, twice). From the resulting sonicate, microsome fraction was obtained according to the same manner as that described in Experiment 1. This microsome fraction was suspended in an ice-cooled 100 mM potassium phosphate buffer solution (pH 7.4) so that the protein concentration became about 4 mg/ml, and this suspension was used as the enzyme liquid.

For another assay, the system named is cholesterol biosynthesis. As to the kind of experiment: Cholesterol biosynthesis inhibitory activity: cholesterol synthesis from [2-14C] acetic acid in rat liver slices. Format: cell-based. The settings on record: for effect on cholesterol synthesis from [2-14C] acetic acid (in words): 20 μM; for activity at 20 µM: 37° C., 2 hours, No addition = 100 ± 0. Here is the method:
as §1
Determination of cholesterol biosynthesis Inhibitory activity
The liver was excised from Sprague-Dawley rat (6 weeks old, male) under full feeding and sliced into 500 μm in thickness. The slices of liver (150-200 mg) and KHB buffer solution (1 ml) containing 0.5 μCi [2-^14 C] acetic acid and various concentrations of test compounds were incubated at 37° C. for 2 hours. Cholesterol was extracted from the reaction mixture. The amount of cholesterol synthesized from the labeled acetic acid was measured, and the inhibitory ratio was calculated in comparison with the synthesized amount in the case of no addition of the test compounds.
The effect of Compound No. 22 (Example 39 described in Japanese Patent Application No. 3-151484) (added in 20 μM), 67, 74 and 75 on cholesterol synthesis from [2-^14 C] acetic acid in assay using liver slices of rats was observed.

For the compound `O=P(O)(O)C(NCCSCCc1ccccc1)P(=O)(O)O` [compound 16], the results for the IC50 at squalene synthetase [1] and on squalene synthetase [2] were 20 nM and 9.7 nM, respectively.
The like results for `O=P(O)(O)C(NCCCSCc1ccccc1)P(=O)(O)O` [compound 17] were, in that order, 18 nM and 12 nM.
In the case of `CCOP(=O)(OCC)C(NCCSCCc1ccccc1)P(=O)(OCC)OCC` [compound 18], the IC50 (commonly the concentration that gives 50% inhibition) at squalene synthetase [1] is 790 nM; at squalene synthetase [2], 610 nM.
As to `CCOP(=O)(OCC)C(NCCCCCCSc1ccccc1)P(=O)(OCC)OCC` [compound 19], the IC50 was found to be 7500 nM on squalene synthetase [1] and 6900 nM at squalene synthetase [2].
Taken in the same sequence, the figures for `O=P(O)(O)C(NC1CCCCCC1)P(=O)(O)O` [compound 20] were 940 nM and 6400 nM.
Consider `O=P(O)(O)C(NCCCCCCSc1ccccc1)P(=O)(O)O` [compound 22], for which, in the assay on cholesterol biosynthesis, the “effect on cholesterol synthesis from [2-14C] acetic acid (in words)” value (“effect on cholesterol synthesis” for short) was “significant inhibition of cholesterol biosynthesis” and the activity at 20 µM was 52.9 ± 10%.
On to `CCOP(=O)(OCC)C(NCCCCCCSc1ccc(Cl)cc1)P(=O)(OCC)OCC` [compound 28], for which the 50% inhibitory concentration (IC50) worked out at 6200 nM on squalene synthetase [1] and 3200 nM on squalene synthetase [2].
As to `O=P(O)(O)C(NCCCCCC[S+]([O-])c1ccccc1)P(=O)(O)O` (stereo not drawn) [compound 60, disodium 6-(phenylsulfinyl)hexylaminomethylenebisphosphonate], the values for the IC50 at squalene synthetase [1] and on squalene synthetase [2] were 6 nM and 3.1 nM, respectively.
Consider `O=P(O)(O)C(NCCCCCCCCCCSc1ccccc1)P(=O)(O)O` [compound 61], for which the results for the IC50 at squalene synthetase [1] and at squalene synthetase [2] were 0.58 nM and 0.47 nM, respectively.
Consider `CC(C)CCCC(C)CCCC(C)CCNC(P(=O)(O)O)P(=O)(O)O` (stereo not drawn) [compound 63], for which the concentration for half-maximal inhibition (IC50) on squalene synthetase [1] was found to be 4.3 nM; at squalene synthetase [2], 2.2 nM.
Taken in the same sequence, the figures for `O=P(O)(O)C(NCCCCCC[S+]([O-])c1ccc2ccccc2c1)P(=O)(O)O` (stereo not drawn) [compound 66] were 4.7 nM and 4 nM.
With `COc1ccc(CSCCCCCCNC(P(=O)(O)O)P(=O)(O)O)cc1` [compound 67], the IC50 on squalene synthetase [1] came out at 8.7 nM; at squalene synthetase [2] it was 9.3 nM. In addition, in the assay on cholesterol biosynthesis, the “effect on cholesterol synthesis” value is “significant inhibition of cholesterol biosynthesis”. In the assay on cholesterol biosynthesis, this compound returned an activity at 20 µM of 43.4 ± 5%.
Consider `O=P(O)(O)C(NCCCCCCCCCCC[S+]([O-])c1ccccc1)P(=O)(O)O` (stereo not drawn) [compound 72], for which the half-maximal inhibitory concentration (IC50) worked out at 4.5 nM at squalene synthetase [1] and 4.6 nM on squalene synthetase [2].
As to `O=P(O)(O)C(NCCCCCCSc1nccs1)P(=O)(O)O` [compound 74], in the assay with cholesterol biosynthesis, the “effect on cholesterol synthesis” value is reported as “significant inhibition of cholesterol biosynthesis” and the activity at 20 µM is 35.8 ± 0.8%.
Turning to `Cc1nnc(SCCCCCCNC(P(=O)(O)O)P(=O)(O)O)s1` [compound 75], in the assay on cholesterol biosynthesis, the “effect on cholesterol synthesis” value is listed as “significant inhibition of cholesterol biosynthesis” and the activity at 20 µM was found to be 50 ± 7.9%.
As to `O=P(O)(O)C(NCCCCCCCCCSc1ncccn1)P(=O)(O)O` [compound 79], the IC50 on squalene synthetase [1] was 8.8 nM; at squalene synthetase [2] it was 7 nM.
With `O=P(O)(O)C(NCCCCCCSc1nnc2ccccn12)P(=O)(O)O` [compound 81], the IC50 was 200 nM at squalene synthetase [1] and 1800 nM on squalene synthetase [2].
Take `O=P(O)(O)C(NCCCCCCSc1nc2ccccc2s1)P(=O)(O)O` [compound 83]: the figures for the 50% inhibitory concentration (IC50) at squalene synthetase [1] and at squalene synthetase [2] were 4.3 nM and 8.4 nM, respectively.
Regarding `CC(C)=CCC/C(C)=C/CNC(P(=O)(O)O)P(=O)(O)O` [compound 86], the IC50 at squalene synthetase [1] is 27 nM; at squalene synthetase [2] it was 35 nM.
For `CC(C)=CCC/C(C)=C/CC/C(C)=C/CNC(P(=O)(O)O)P(=O)(O)O` [compound 93], the values for the IC50 at squalene synthetase [1] and at squalene synthetase [2] were 19 nM and 20 nM, respectively.
The like results for `CC(C)=CCC/C(C)=C/CC/C(C)=C/CNC(P(=O)(O)O)P(=O)(O)O` [compound 99] were, in that order, 6.9 nM and 6.7 nM.
The like results for `O=P(O)(O)C(NCCCCCCCCCSc1ncccn1)P(=O)(O)O` [compound 100] were, in that order, 12 nM and 12 nM.
As to `O=P(O)(O)C(NCCCCCCCCCCSc1ncccn1)P(=O)(O)O` [compound 101], the half-inhibitory concentration (IC50) is 7.8 nM at squalene synthetase [1] and 6.1 nM on squalene synthetase [2].
As for `O=P(O)(O)C(NCCCCCCCCCCCSc1ccccc1)P(=O)(O)O` [compound 102, trisodium 11-(phenylthio)undecylaminomethylenebisphosphonate], the IC50 on squalene synthetase [1] came to 3.1 nM; on squalene synthetase [2], 3 nM.
Turning to `CC(C)=CCC/C(C)=C/CC/C(C)=C/CC(P(=O)(O)O)P(=O)(O)O` [compound 106, trisodium (E,E)-farnesylmethylenebisphosphonate], the IC50 was 62 nM at squalene synthetase [1] and 110 nM on squalene synthetase [2].
For “(E,E)-farnesylaminomethylenebisphosphonic acid diethyl ester disodium salt [Compound No. 112]”, the results for the half-inhibitory concentration (IC50) on squalene synthetase [1] and on squalene synthetase [2] were 3300 nM and 8200 nM, respectively.
